{"source": "paper PMC11571207", "about": "“Stereorandomized Oncocins with Preserved Ribosome Binding and Antibacterial Activity” (Journal of Medicinal Chemistry, 2024)", "key": {"E. cloacae": {"tested_on": "E. cloacae", "assay": "microbe, parasite or virus in culture", "settings": "for MIC E. cloacae: supplement CSV", "procedure,_shortened": "(§1)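 Minimal inhibitory concentrations come from broth microdilution in MH medium, with a top peptide concentration of 64 μg/mL halved serially.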"}, "K. pneumoniae OXA-48": {"tested_on": "K. pneumoniae OXA-48", "assay": "microbe, parasite or virus in culture", "settings": "for MIC K. pneumoniae OXA-48: supplement CSV", "procedure,_shortened": "as §1"}, "[1]": {"tested_on": "P. aeruginosa PA14 2P4 (pmrB)", "assay": "microbe, parasite or virus in culture", "procedure,_shortened": "as §1"}, "P. aeruginosa PA14": {"tested_on": "P. aeruginosa PA14", "assay": "microbe, parasite or virus in culture", "settings": "for MIC P. aeruginosa PA14: supplement CSV", "procedure,_shortened": "as §1"}, "P. aeruginosa ZEM-1A": {"tested_on": "P. aeruginosa ZEM-1A", "assay": "microbe, parasite or virus in culture", "settings": "for MIC P. aeruginosa ZEM-1A: supplement CSV", "procedure,_shortened": "as §1"}, "P. aeruginosa ZEM9A": {"tested_on": "P. aeruginosa ZEM9A", "assay": "microbe, parasite or virus in culture", "settings": "for MIC P. aeruginosa ZEM9A: supplement CSV", "procedure,_shortened": "as §1"}, "E. coli BW25113 WT": {"tested_on": "E. coli BW25113 WT", "settings": "Table S1, 16-20 h at 37 °C", "method": "(§2) Minimum inhibitory concentration assay\n(§3) Antimicrobial activity was assayed against P. aeruginosa PAO1, K. pneumoniae NCTC418, E. coli W3110, A. baumannii ATCC 19606, methicillin-resistant S. aureus COL (MRSA), and for selected peptides on P. aeruginosa PA14 and the polymyxin-B-resistant derivative PA14 2P4, as well as the clinical isolates ZEM-1A and ZEM9A, K. pneumoniae OXA-48, S. aureus Newman, Enterobacter cloacae and Burkholderia cenocepacia. The minimal inhibitory concentration (MIC) was determined by using broth microdilution method. A colo ny of bacteria was picked and grown in Luria-Bertani (LB) medium overnight at 37°C. For E. coli BW25113 sbmA::kan the medium was supplemented with 25 mg/L of kanamycin. The next day, the culture was then regrown in LB medium to log phase (OD600 = 0.6 to 0.8), which lasted approximately 4 h, and diluted to an OD600 of 0.022 in the desired medium. Stock solutions of 1 mg/mL of the samples were prepared in sterilized milliQ water and diluted to the beginning concentration of 64 μg/mL in 300 μL Mueller Hinton (MH)-medium. The diluted samples were added to first well of 96-well microtiter plate (TPP, untreated, Faust Laborbedarf, AG, Schaffhausen) and diluted serially by ½. Finally, 4 μL of the bacterial suspension was inoculated into the sample solutions (150 μL/well) with a final inoculation of about 5∙10^5 CFU/mL. The plates were then incubated at 37°C for 15-18h. For each assay, sterility (broth only) and growth control (broth with bacterial inoculum, without antibiotics) were checked with two columns in the plate. The next day, 15 μL of 3-(4,5-dimethylthiazol-2-yl)-2,5-diphenyltetrazolium bromide (MTT) was added to each well of the plate, such a way that MIC was defined as the lowest concentration of the peptide that inhibited visible growth of the tested […]\n(§4) Table S1. Activity of stereorandomized and diastereomeric oncocins against E. coli BW25113 WT and BW25113 sbmA::kan mutant in full and 12.5% MH, at pH 7.4. […]\n(§5) a) Minimum inhibitory concentration (MIC, μg/mL) was determined on E. coli BW25113 WT and […]"}, "[2]": {"tested_on": "E. coli BW25113 sbmA::kan", "settings": "Table S1, sbmA::kan mutant, 16-20 h at 37 °C", "method": "as §2, §3, §4, §5"}, "[3]": {"tested_on": "P. aeruginosa PA14 4.18 (pmrB)", "settings": "for MIC P. aeruginosa PA14 4.18: supplement CSV"}, "human red blood cells": {"tested_on": "human red blood cells", "assay": "Hemolysis assay, minimum hemolytic concentration"}, "[4]": {"settings": "polymyxin B resistant strain, 12.5% MHB pH 7.4, 16–20 h at 37 °C"}, "[5]": {"settings": "12.5% Müller-Hinton medium pH 7.4"}, "[6]": {"settings": "full Müller-Hinton medium pH 7.4"}}, "note": "Like-named read-outs stand apart in the source and are kept apart here. Non-standard residues stand in square brackets, D forms with d. Residues, ends and D or L forms follow the SMILES beside them.", "data": [{"smiles": "CC[C@H](C)[C@H](NC(=O)[C@@H](CCCNC(=N)N)NC(=O)[C@H](CCCNC(=N)N)NC(=O)[C@@H]1CCCN1C(=O)[C@@H]1CCCN1C(=O)[C@H](CCCNC(=N)N)NC(=O)[C@@H]1CCCN1C(=O)[C@H](CCCNC(=N)N)NC(=O)[C@@H]1CCCN1C(=O)[C@H](CC(C)C)NC(=O)[C@H](Cc1ccc(O)cc1)NC(=O)[C@@H]1CCCN1C(=O)[C@@H]1CCCN1C(=O)[C@H](CCCCN)NC(=O)[C@H](CC(=O)O)NC(=O)[C@@H](N)C(C)C)C(=O)N[C@@H](Cc1ccc(O)cc1)C(=O)N[C@@H](CC(N)=O)C(=O)N[C@H](CCCNC(=N)N)C(N)=O", "note": "[Onc112, reference compound] (H-VDKPPYLPRPRPPR[dR]IYN[dR]-NH2)", "values": [{"measurement": "MIC E. cloacae, 12.5% MHB", "setting": "E. cloacae; 12.5% MHB pH 7.4, 16–20 h at 37 °C", "result": 1, "unit": "µg/mL"}, {"measurement": "MIC E. cloacae, full MHB", "setting": "E. cloacae; full MHB pH 7.4, 16–20 h at 37 °C", "result": 2, "unit": "µg/mL"}, {"measurement": "MIC E. cloacae", "setting": "E. cloacae; 12.5% MH pH 7.4", "result": 1, "unit": "µg/mL"}, {"measurement": "MIC E. cloacae", "setting": "E. cloacae; full MH pH 7.4", "result": 2, "unit": "µg/mL"}, {"measurement": "MIC K. pneumoniae OXA-48, 12.5% MHB", "setting": "K. pneumoniae OXA-48; carbapenem-resistant, 12.5% MHB pH 7.4, 16–20 h at 37 °C", "result": 1, "unit": "µg/mL"}, {"measurement": "MIC K. pneumoniae OXA-48, full MHB", "setting": "K. pneumoniae OXA-48; carbapenem-resistant, full MHB pH 7.4, 16–20 h at 37 °C", "result": 8, "unit": "µg/mL"}, {"measurement": "MIC K. pneumoniae OXA-48", "setting": "K. pneumoniae OXA-48; 12.5% MH pH 7.4", "result": 1, "unit": "µg/mL"}, {"measurement": "MIC K. pneumoniae OXA-48", "setting": "K. pneumoniae OXA-48; full MH pH 7.4", "result": 8, "unit": "µg/mL"}, {"measurement": "MIC P. aeruginosa PA14 2P4 (pmrB), 12.5% MHB", "setting": "[1]; [4]", "result": "4 to 8", "unit": "µg/mL"}, {"measurement": "MIC P. aeruginosa PA14 2P4", "setting": "[1]; supplement CSV, 12.5% MH pH 7.4", "result": "4 to 8", "unit": "µg/mL"}, {"measurement": "MIC P. aeruginosa PA14, 12.5% MHB", "setting": "P. aeruginosa PA14; 12.5% MHB pH 7.4, 16–20 h at 37 °C, two different duplicate MIC determinations", "result": 16, "unit": "µg/mL"}, {"measurement": "MIC P. aeruginosa PA14, full MHB", "setting": "P. aeruginosa PA14; full MHB pH 7.4, 16–20 h at 37 °C, two different duplicate MIC determinations", "result": "> 32", "unit": "µg/mL"}, {"measurement": "MIC P. aeruginosa PA14", "setting": "P. aeruginosa PA14; 12.5% MH pH 7.4", "result": 16, "unit": "µg/mL"}, {"measurement": "MIC P. aeruginosa PA14", "setting": "P. aeruginosa PA14; full MH pH 7.4", "result": ">32", "unit": "µg/mL"}, {"measurement": "MIC P. aeruginosa ZEM-1A, 12.5% MHB", "setting": "P. aeruginosa ZEM-1A; clinical isolate, 12.5% MHB pH 7.4, 16–20 h at 37 °C, cells marked c: single measurement (in duplicates)", "result": 8, "unit": "µg/mL"}, {"measurement": "MIC P. aeruginosa ZEM-1A, full MHB", "setting": "P. aeruginosa ZEM-1A; clinical isolate, full MHB pH 7.4, 16–20 h at 37 °C, cells marked c: single measurement (in duplicates)", "result": 32, "unit": "µg/mL"}, {"measurement": "MIC P. aeruginosa ZEM-1A", "setting": "P. aeruginosa ZEM-1A; 12.5% MH pH 7.4", "result": 8, "unit": "µg/mL"}, {"measurement": "MIC P. aeruginosa ZEM-1A", "setting": "P. aeruginosa ZEM-1A; full MH pH 7.4", "result": 32, "unit": "µg/mL"}, {"measurement": "MIC P. aeruginosa ZEM9A, 12.5% MHB", "setting": "P. aeruginosa ZEM9A; clinical isolate, 12.5% MHB pH 7.4, 16–20 h at 37 °C", "result": 8, "unit": "µg/mL"}, {"measurement": "MIC P. aeruginosa ZEM9A, full MHB", "setting": "P. aeruginosa ZEM9A; clinical isolate, full MHB pH 7.4, 16–20 h at 37 °C", "result": "> 64", "unit": "µg/mL"}, {"measurement": "MIC P. aeruginosa ZEM9A", "setting": "P. aeruginosa ZEM9A; 12.5% MH pH 7.4", "result": 8, "unit": "µg/mL"}, {"measurement": "MIC P. aeruginosa ZEM9A", "setting": "P. aeruginosa ZEM9A; full MH pH 7.4", "result": ">64", "unit": "µg/mL"}, {"measurement": "MIC E. coli BW25113 WT, 12.5% MH", "setting": "E. coli BW25113 WT; [5]", "result": 4, "unit": "µg/mL"}, {"measurement": "MIC E. coli BW25113 WT, Full MH", "setting": "E. coli BW25113 WT; [6]", "result": 16, "unit": "µg/mL"}, {"measurement": "MIC E. coli BW25113 SbmA-, 12.5% MH", "setting": "[2]; [5]", "result": 4, "unit": "µg/mL"}, {"measurement": "MIC E. coli BW25113 SbmA-, Full MH", "setting": "[2]; [6]", "result": "> 64", "unit": "µg/mL"}, {"measurement": "MIC P. aeruginosa PA14 4.18 (pmrB), 12.5% MHB", "setting": "[3]; [4]", "result": 16, "unit": "µg/mL"}, {"measurement": "MIC P. aeruginosa PA14 4.18 (pmrB), full MHB", "setting": "[3]; polymyxin B resistant strain, full MHB pH 7.4, 16–20 h at 37 °C", "result": "> 32", "unit": "µg/mL"}, {"measurement": "MIC P. aeruginosa PA14 4.18", "setting": "[3]; 12.5% MH pH 7.4", "result": 16, "unit": "µg/mL"}, {"measurement": "MIC P. aeruginosa PA14 4.18", "setting": "[3]; full MH pH 7.4", "result": ">32", "unit": "µg/mL"}, {"measurement": "Haemolysis on hRBC, MHC", "setting": "human red blood cells; 2.5% human red blood cells (final) in 10 mM phosphate, 150 mM NaCl, pH 7.4, 25 °C, 4 h, visual inspection", "result": ">1000", "unit": "µg/mL"}, {"measurement": "MHC human red blood cells", "setting": "human red blood cells; supplement CSV", "result": ">1000", "unit": "µg/mL"}]}]}
